How the values were obtained:
PC3 (Prostate Cancer) = assay: Cellular growth inhibition assay (MTT), PC3; type: cell-based; details: Table 1, 40 hr incubation
Method: (§1) For screening purposes, compounds were diluted in 96 well plates at a concentration of 20 μM. Plates were warmed at 37° C. for 30 minutes before assay.
(§2) K562 (Chronic Myeloid Leukemia), PC3 (Prostate Cancer), and DU145 (Prostate Cancer) were obtained from the American Type Culture Collection (ATCC). K562 was grown in RPMI, with 10% FBS with Glutamx added. DU145 cells were cultured in DMED, with 10% FBS and Glutamx and MEM non-essential amino acids added. PC3 cells were grown in F12K medium, with 10% FBS and Glutamx and MEM non-essential amino acids added. All cells were grown at 37° C. in 5% CO2.
(§3) Cell suspensions were prepared by harvesting cells from culture. (Cells used in this test should be in later log phase growth and high viability.) Cells were diluted in correct growth medium to 1.1× final concentration (from 50000 cell/mL to 200,000 cell/mL, depending on cell line).
(§4) Compounds to be tested were added (10 μL, 10× final concentration) to a flat bottom 96-well plate. The cellular suspension (90 μL per well) was added, and the plate incubated for 40 hr at 37° C., 5% CO2. MTT (20 μL per well, 5 mg/mL in PBS) was added and the plates were returned to the incubator for a further 6 hours. Lysis buffer (100 μL per well, 10% SDS, 0.01N HCl) was added and the plate stored in the incubator overnight. The plate was then read at 590 nm.

[1] = biological target: T1, TelJak2 (BaF3 TELJAK cells, TEL/Jak2 fusion) (Homo sapiens, UniProt O60674); assay: Cellular growth inhibition assay (MTT), BaF3 TEL:JAK2 cell line; type: cell-based; details: Table 1, 40 hr incubation
T1 construct: The regions encompassing the kinase domain of JAK2 (nucleotides 2994-3914); expressed in transfected cells; host or cells: BaF3 cells bearing the pTET-off plasmid, transfected with pTELJAK2 (pTRE2 vector); the other entry of the earlier key: ETV6 (P41212, Transcription factor ETV6)
T1 sequence (O60674 with tags, fused parts or gaps): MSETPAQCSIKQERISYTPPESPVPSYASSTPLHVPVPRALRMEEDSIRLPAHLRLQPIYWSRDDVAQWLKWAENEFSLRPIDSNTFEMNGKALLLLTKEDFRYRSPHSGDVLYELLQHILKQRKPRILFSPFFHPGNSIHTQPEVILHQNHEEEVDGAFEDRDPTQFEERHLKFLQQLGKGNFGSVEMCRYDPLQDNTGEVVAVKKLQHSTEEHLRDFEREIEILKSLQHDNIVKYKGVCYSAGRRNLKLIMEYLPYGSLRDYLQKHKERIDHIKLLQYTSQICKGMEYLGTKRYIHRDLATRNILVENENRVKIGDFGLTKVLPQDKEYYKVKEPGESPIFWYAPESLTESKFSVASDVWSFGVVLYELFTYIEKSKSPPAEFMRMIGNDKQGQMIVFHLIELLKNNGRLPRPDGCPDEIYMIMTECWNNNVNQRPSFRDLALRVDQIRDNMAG
Method: as §1
(§5) The coding region encompassing nucleotides 1-487 of TEL was amplified by PCR using the oligonucleotides 5TEL (5′-GGAGGATCCTGATCTCTCTCGCTGTGAGAC-3′) (SEQ ID NO: 1) and 3TEL (5′-AGGC GTCGACTTCTTCTTGATGGTTCTG-3′) (SEQ ID NO: 2) and U937 mRNA as template. A BamH I site was incorporated into the 5TEL primer, and a Sal I site was incorporated into the 3TEL primer. The regions encompassing the kinase domain of JAK2 (nucleotides 2994-3914; JAK2F 5′-ACGC GTCGACGGTGCCTTTGAAGACCGGGAT-3 (SEQ ID NO: 3); JAK2R 5′-ATAGTTTAGCGGCCGCTCAGAATGAAGGTCATTT-3′) (SEQ ID NO: 4) and JAK3 (nucleotides 2520-3469; JAK3F 5′-GAAGTCGACTATGCCTGCCAAGACCCCACGATCTT-3′ (SEQ ID NO: 5); JAK3R 5′-GGATCTAGACTATGAAAAGGACAGGGAGTGGTGTTT-3′ (SEQ ID NO: 6)) were generated by PCR using Taq DNA polymerase (Gibco/BRL) and U937 mRNA as template. A Sal I site was incorporated into the forward primer of JAK2 and JAK3, a Not I site was incorporated into the JAK2 reverse primer and a Xba I site was added to the reverse primer of JAK3.
(§6) A TEL/Jak2 fusion was generated by digestion of the TELPCR product with BamH I/Sa1 I, digestion of the JAK2 PCR product with Sa1 I/Not I followed by ligation and subcloning into the mammalian expression Vector pTRE 2 (Clontech) digested with BamH I-Not I (pTELJAK2). For JAK3 Sa1 I/Not I cleaved kinase domain PCR product was ligated with BamH I/Sa1 I cleaved TELproduct followed by ligation into BamH I/Not I cleaved pTRE2 (pTELJAK3).
(§7) The growth factor dependent myelomonocytic cell line BaF3 bearing the pTET-off plasmid (Clontech) was transfected with either pTELJAK2 or pTELJAK3 and the cells selected for factor independent growth. BaF 3 wild type cells were cultured in DMEM 10% FCS, 10% WEHI 3B conditioned medium. BaF3 TELJAK cells were cultured in DMEM 10% Tet-System Approved FBS (without WEHI 3B conditioned medium).
as §3, §4

[2] = tested on: K562 (Chronic Myeloid Leukemia); assay: Cellular growth inhibition assay (MTT), K562; type: cell-based; details: Homo sapiens, Table 1, 40 hr incubation
Method: as §1, §2, §3, §4

[3] = tested on: Tubulin (microtubule protein); assay: Tubulin assay (turbidometric assay of microtubule assembly); type: biochemical; details: Table 1; 50 μM; absorbance at 340 nm, 37° C.
Method: Turbidometric assays of microtubule assembly were performed by incubating microtubule protein in cuvettes at 37° C. in a thermostatically controlled spectrophotometer measuring the change in absorbance at 340 nm over time. The microtubule protein was incubated with the each test compound at 0° C. and polymerisation was initiated by addition of 1 mM GTP, prior to heating to 37° C.

DU145 (Prostate Cancer) = assay: Cellular growth inhibition assay (MTT), DU145; type: cell-based; details: Homo sapiens, DU-145, Table 1, 40 hr incubation
Method: as §1, §2, §3, §4

[4] = biological target: T2, TelJak3 (BaF3 TELJAK cells, TEL/JAK3 fusion) (Homo sapiens, UniProt P52333); assay: Cellular growth inhibition assay (MTT), BaF3 TEL:JAK3 cell line; type: cell-based; details: Table 1, 40 hr incubation
T2 construct: For JAK3 Sa1 I/Not I cleaved kinase domain PCR product was ligated with BamH I/Sa1 I cleaved TELproduct; expressed in transfected cells; host or cells: BaF3 cells bearing the pTET-off plasmid, transfected with pTELJAK3 (pTRE2 vector); the other entry of the earlier key: ETV6 (P41212, Transcription factor ETV6)
T2 sequence (P52333 with tags, fused parts or gaps): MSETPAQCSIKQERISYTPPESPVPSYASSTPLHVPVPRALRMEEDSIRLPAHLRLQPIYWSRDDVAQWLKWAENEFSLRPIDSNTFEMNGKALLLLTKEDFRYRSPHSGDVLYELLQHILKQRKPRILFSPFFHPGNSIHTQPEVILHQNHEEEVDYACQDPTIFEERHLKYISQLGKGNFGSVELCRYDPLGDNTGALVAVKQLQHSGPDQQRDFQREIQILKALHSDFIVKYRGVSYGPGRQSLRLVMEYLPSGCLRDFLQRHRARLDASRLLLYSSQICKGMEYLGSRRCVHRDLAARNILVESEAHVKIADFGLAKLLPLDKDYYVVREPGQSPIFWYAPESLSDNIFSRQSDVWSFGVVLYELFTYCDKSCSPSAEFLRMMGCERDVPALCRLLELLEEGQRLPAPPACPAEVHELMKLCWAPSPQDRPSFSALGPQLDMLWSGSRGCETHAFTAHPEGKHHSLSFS
Method: as §1, §5, §6, §7, §3, §4

SMILES	inhibition at 20 µM (PC3 (Prostate Cancer))	inhibition at 20 µM [1]	inhibition at 20 µM [2]	Tubulin inhibition of tubulin polymerisation [3]	inhibition at 20 µM (DU145 (Prostate Cancer))	inhibition at 20 µM [4]
CCCC(Nc1cncc(-c2ccc(OCCCCN3CCCC3)c(OC)c2)n1)c1ccccc1 (stereo not drawn)	> 50%	> 50%	> 50%	+ (compounds which inhibited tubulin polymerisation by greater than 50% at 50 μM)	> 50%	> 50%
CCCC(Nc1cncc(-c2ccc(NC(=O)NCC)c(OC)c2)n1)c1cccnc1C (stereo not drawn)	> 50%	> 50%	> 50%	+ (compounds which inhibited tubulin polymerisation by greater than 50% at 50 μM)	> 50%	> 50%
CCC[C@H](Nc1nc(-c2ccc(NC(=O)NCC)c(OC)c2)ncc1C)c1cccnc1	> 50%	> 50%	> 50%	+ (compounds which inhibited tubulin polymerisation by greater than 50% at 50 μM)	> 50%	> 50%
CCCC(Nc1cncc(-c2ccc(CN)c(OC)c2)n1)c1cccnc1 (stereo not drawn)	> 50%	> 50%	> 50%	+ (compounds which inhibited tubulin polymerisation by greater than 50% at 50 μM)	> 50%	> 50%
CCCC(Nc1nnc(C)c(-c2ccc(O)c(OC)c2)n1)c1ccccc1 (stereo not drawn)	> 50%	> 50%	> 50%	+ (compounds which inhibited tubulin polymerisation by greater than 50% at 50 μM)	> 50%	> 50%
CCCC(Nc1cncc(-c2ccc(NC(=O)NCCN(C)C)c(OC)c2)n1)c1cccnc1 (stereo not drawn)	> 50%	> 50%	> 50%	+ (compounds which inhibited tubulin polymerisation by greater than 50% at 50 μM)	> 50%	> 50%
CCCC(Nc1cncc(-c2ccc(NC(=O)NCC)c(OC)c2)n1)c1cncc(C)c1 (stereo not drawn)	> 50%	> 50%	> 50%	+ (compounds which inhibited tubulin polymerisation by greater than 50% at 50 μM)	> 50%	> 50%
CCCC(Nc1cncc(-c2ccc(NC(=O)NCC)c(OC)c2)n1)c1cnccc1C (stereo not drawn)	> 50%	> 50%	> 50%	+ (compounds which inhibited tubulin polymerisation by greater than 50% at 50 μM)	> 50%	> 50%
CCC[C@H](Nc1cncc(-c2ccc(NC(=O)NCC)c(OC)c2)n1)c1ccccc1	> 50%	> 50%	> 50%	+ (compounds which inhibited tubulin polymerisation by greater than 50% at 50 μM)	> 50%	> 50%
CCCC(Nc1cncc(-c2ccc(OCCCCN3CCN(C)CC3)c(OC)c2)n1)c1ccccc1 (stereo not drawn)	> 50%	> 50%	> 50%	+ (compounds which inhibited tubulin polymerisation by greater than 50% at 50 μM)	> 50%	> 50%
CCCC(Nc1cncc(-c2ccc(CO)cc2)n1)c1ccccc1 (stereo not drawn)	> 50%	> 50%	> 50%	+ (compounds which inhibited tubulin polymerisation by greater than 50% at 50 μM)	> 50%	> 50%
CCCC(Nc1cncc(-c2ccc(NC(=O)NCCCN3CCOCC3)c(OC)c2)n1)c1cccnc1 (stereo not drawn)	> 50%	> 50%	> 50%	+ (compounds which inhibited tubulin polymerisation by greater than 50% at 50 μM)	> 50%	> 50%
CCCC(Nc1cncc(-c2ccc(OCCCCN3CCCCC3)c(OC)c2)n1)c1ccccc1 (stereo not drawn)	> 50%	> 50%	> 50%	+ (compounds which inhibited tubulin polymerisation by greater than 50% at 50 μM)	> 50%	> 50%
CCCC(Nc1cncc(-c2ccc(OCCCCO)c(OC)c2)n1)c1ccccc1 (stereo not drawn)	> 50%	> 50%	> 50%	+ (compounds which inhibited tubulin polymerisation by greater than 50% at 50 μM)	> 50%	> 50%
COc1cc(-c2cc(N[C@@H](C)c3ccccc3)ncn2)ccc1O	> 50%	> 50%	> 50%	+ (compounds which inhibited tubulin polymerisation by greater than 50% at 50 μM)	> 50%	> 50%
CCCC(Nc1cncc(-c2ccc(OCCCn3ccnc3)c(OC)c2)n1)c1ccccc1 (stereo not drawn)	> 50%	> 50%	> 50%	+ (compounds which inhibited tubulin polymerisation by greater than 50% at 50 μM)	> 50%	> 50%
CCCC(Nc1cncc(-c2ccc(NC(=O)NCC)c(OC)c2)n1)c1ccccn1 (stereo not drawn)	> 50%	> 50%	> 50%	+ (compounds which inhibited tubulin polymerisation by greater than 50% at 50 μM)	> 50%	> 50%
CCCC(Nc1cncc(-c2ccc(OCCCO)c(OC)c2)n1)c1ccccc1 (stereo not drawn)	> 50%	> 50%	> 50%	+ (compounds which inhibited tubulin polymerisation by greater than 50% at 50 μM)	> 50%	> 50%
